# PubChem BioAssay (NCI)
#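 1) Cells in 96-well plates. 2) Compound, 48 h, 5 concentrations. 3) Linear interpolation between surrounding doses. 4) Unreached endpoint = highest concentration. At the GI50, growth is halved. At the TGI there is no net growth.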
# Legend:
# Assay in all cases: growth of human tumour cells (NCI), 48 h
# OVCAR-3 ovarian = system: OVCAR-3 ovarian
# SF-295 CNS = system: SF-295 CNS
# U251 CNS = system: U251 CNS
# HCC-2998 colon = system: HCC-2998 colon
# MDA-MB-435 = system: MDA-MB-435
# OVCAR-5 ovarian = system: OVCAR-5 ovarian
# K-562 leukemia = system: K-562 leukemia
# NCI-H460 lung = system: NCI-H460 lung
# ACHN renal = system: ACHN renal
# HOP-92 NSCLC = system: HOP-92 NSCLC
# RXF 393 renal = system: RXF 393 renal
# SR leukemia = system: SR leukemia
# BT-549 breast = system: BT-549 breast
# UACC-257 melanoma = system: UACC-257 melanoma
# HT29 colon = system: HT29 colon
# NCI-H226 lung = system: NCI-H226 lung
# PC-3 prostate = system: PC-3 prostate
# SF-539 CNS = system: SF-539 CNS
# MDA-MB-231 breast = system: MDA-MB-231 breast
# COLO 205 colon = system: COLO 205 colon
# KM12 colon = system: KM12 colon
# SN12C renal = system: SN12C renal
# SK-OV-3 ovarian = system: SK-OV-3 ovarian
# SNB-75 CNS = system: SNB-75 CNS
# M14 melanoma = system: M14 melanoma
# TK-10 renal = system: TK-10 renal
# HCT-116 colon = system: HCT-116 colon
# RPMI-8226 leukemia = system: RPMI-8226 leukemia
# SW-620 colon = system: SW-620 colon
# SNB-19 CNS = system: SNB-19 CNS
# SK-MEL-28 melanoma = system: SK-MEL-28 melanoma
# MALME-3M melanoma = system: MALME-3M melanoma
# LOX IMVI melanoma = system: LOX IMVI melanoma
# CCRF-CEM leukemia = system: CCRF-CEM leukemia
# SK-MEL-5 melanoma = system: SK-MEL-5 melanoma
# A549 NSCLC = system: A549 NSCLC
# MCF7 breast = system: MCF7 breast
# EKVX NSCLC = system: EKVX NSCLC
# SK-MEL-2 melanoma = system: SK-MEL-2 melanoma
# A498 renal = system: A498 renal
# HL-60(TB) leukemia = system: HL-60(TB) leukemia
# OVCAR-4 ovarian = system: OVCAR-4 ovarian
# T-47D breast = system: T-47D breast
# SF-268 CNS = system: SF-268 CNS
# NCI/ADR-RES ovarian = system: NCI/ADR-RES ovarian
# CAKI-1 renal = system: CAKI-1 renal
# OVCAR-8 ovarian = system: OVCAR-8 ovarian
# HS 578T breast = system: HS 578T breast
# HCT-15 colon = system: HCT-15 colon
# IGROV1 ovarian = system: IGROV1 ovarian
# NCI-H23 lung = system: NCI-H23 lung
# DU-145 prostate = system: DU-145 prostate
# MOLT-4 leukemia = system: MOLT-4 leukemia
# 786-0 renal = system: 786-0 renal
# NCI-H522 lung = system: NCI-H522 lung
# UO-31 renal = system: UO-31 renal
# HOP-62 NSCLC = system: HOP-62 NSCLC
# UACC-62 melanoma = system: UACC-62 melanoma
smiles,measurement,setting,value
COc1cccc(/C=N/Nc2ncnc3c2cnn3-c2cccc(OC)c2)c1,GI50,OVCAR-3 ovarian,> 25 µM
same,TGI,OVCAR-3 ovarian,> 25 µM
same,GI50,SF-295 CNS,> 25 µM
same,TGI,SF-295 CNS,> 25 µM
same,GI50,U251 CNS,> 25 µM
same,TGI,U251 CNS,> 25 µM
same,GI50,HCC-2998 colon,> 25 µM
same,TGI,HCC-2998 colon,> 25 µM
same,GI50,MDA-MB-435,> 25 µM
same,TGI,MDA-MB-435,> 25 µM
same,GI50,OVCAR-5 ovarian,> 25 µM
same,TGI,OVCAR-5 ovarian,> 25 µM
same,GI50,K-562 leukemia,> 25 µM
same,TGI,K-562 leukemia,> 25 µM
same,GI50,NCI-H460 lung,> 25 µM
same,TGI,NCI-H460 lung,> 25 µM
same,GI50,ACHN renal,> 25 µM
same,TGI,ACHN renal,> 25 µM
same,GI50,HOP-92 NSCLC,> 25 µM
same,TGI,HOP-92 NSCLC,> 25 µM
same,GI50,RXF 393 renal,> 25 µM
same,TGI,RXF 393 renal,> 25 µM
same,GI50,SR leukemia,> 25 µM
same,TGI,SR leukemia,> 25 µM
same,GI50,BT-549 breast,> 25 µM
same,TGI,BT-549 breast,> 25 µM
same,GI50,UACC-257 melanoma,> 25 µM
same,TGI,UACC-257 melanoma,> 25 µM
same,GI50,HT29 colon,> 25 µM
same,TGI,HT29 colon,> 25 µM
same,GI50,NCI-H226 lung,> 25 µM
same,TGI,NCI-H226 lung,> 25 µM
same,GI50,PC-3 prostate,> 25 µM
same,TGI,PC-3 prostate,> 25 µM
same,GI50,SF-539 CNS,> 25 µM
same,TGI,SF-539 CNS,> 25 µM
same,GI50,MDA-MB-231 breast,> 25 µM
same,TGI,MDA-MB-231 breast,> 25 µM
same,GI50,COLO 205 colon,> 25 µM
same,TGI,COLO 205 colon,> 25 µM
same,GI50,KM12 colon,> 25 µM
same,TGI,KM12 colon,> 25 µM
same,GI50,SN12C renal,> 25 µM
same,TGI,SN12C renal,> 25 µM
same,GI50,SK-OV-3 ovarian,> 25 µM
same,TGI,SK-OV-3 ovarian,> 25 µM
same,GI50,SNB-75 CNS,> 25 µM
same,TGI,SNB-75 CNS,> 25 µM
same,GI50,M14 melanoma,> 25 µM
same,TGI,M14 melanoma,> 25 µM
same,GI50,TK-10 renal,> 25 µM
same,TGI,TK-10 renal,> 25 µM
same,GI50,HCT-116 colon,> 25 µM
same,TGI,HCT-116 colon,> 25 µM
same,GI50,RPMI-8226 leukemia,> 25 µM
same,TGI,RPMI-8226 leukemia,> 25 µM
same,GI50,SW-620 colon,> 25 µM
same,TGI,SW-620 colon,> 25 µM
same,GI50,SNB-19 CNS,> 25 µM
same,TGI,SNB-19 CNS,> 25 µM
same,GI50,SK-MEL-28 melanoma,> 25 µM
same,TGI,SK-MEL-28 melanoma,> 25 µM
same,GI50,MALME-3M melanoma,> 25 µM
same,TGI,MALME-3M melanoma,> 25 µM
same,GI50,LOX IMVI melanoma,> 25 µM
same,TGI,LOX IMVI melanoma,> 25 µM
same,GI50,CCRF-CEM leukemia,> 25 µM
same,TGI,CCRF-CEM leukemia,> 25 µM
same,GI50,SK-MEL-5 melanoma,> 25 µM
same,TGI,SK-MEL-5 melanoma,> 25 µM
same,GI50,A549 NSCLC,> 25 µM
same,TGI,A549 NSCLC,> 25 µM
same,GI50,MCF7 breast,> 25 µM
same,TGI,MCF7 breast,> 25 µM
same,GI50,EKVX NSCLC,> 25 µM
same,TGI,EKVX NSCLC,> 25 µM
same,GI50,SK-MEL-2 melanoma,> 25 µM
same,TGI,SK-MEL-2 melanoma,> 25 µM
same,GI50,A498 renal,> 25 µM
same,TGI,A498 renal,> 25 µM
same,GI50,HL-60(TB) leukemia,> 25 µM
same,TGI,HL-60(TB) leukemia,> 25 µM
same,GI50,OVCAR-4 ovarian,> 25 µM
same,TGI,OVCAR-4 ovarian,> 25 µM
same,GI50,T-47D breast,> 25 µM
same,TGI,T-47D breast,> 25 µM
same,GI50,SF-268 CNS,> 25 µM
same,TGI,SF-268 CNS,> 25 µM
same,GI50,NCI/ADR-RES ovarian,> 25 µM
same,TGI,NCI/ADR-RES ovarian,> 25 µM
same,GI50,CAKI-1 renal,> 25 µM
same,TGI,CAKI-1 renal,> 25 µM
same,GI50,OVCAR-8 ovarian,> 25 µM
same,TGI,OVCAR-8 ovarian,> 25 µM
same,GI50,HS 578T breast,> 10.6 µM
same,TGI,HS 578T breast,> 25 µM
same,GI50,HCT-15 colon,> 25 µM
same,TGI,HCT-15 colon,> 25 µM
same,GI50,IGROV1 ovarian,> 25 µM
same,TGI,IGROV1 ovarian,> 25 µM
same,GI50,NCI-H23 lung,> 25 µM
same,TGI,NCI-H23 lung,> 25 µM
same,GI50,DU-145 prostate,> 25 µM
same,TGI,DU-145 prostate,> 25 µM
same,GI50,MOLT-4 leukemia,> 25 µM
same,TGI,MOLT-4 leukemia,> 25 µM
same,GI50,786-0 renal,> 25 µM
same,TGI,786-0 renal,> 25 µM
same,GI50,NCI-H522 lung,> 25 µM
same,TGI,NCI-H522 lung,> 25 µM
same,GI50,UO-31 renal,> 25 µM
same,TGI,UO-31 renal,> 25 µM
same,GI50,HOP-62 NSCLC,> 25 µM
same,TGI,HOP-62 NSCLC,> 25 µM
same,GI50,UACC-62 melanoma,> 25 µM
same,TGI,UACC-62 melanoma,> 25 µM
